What was measured:
[1] = in vivo; cited from earlier work
[2] = test system: central muscarinic agonist site; assay: Receptor [^3 H]Cis-methyldioxalane Assay (RCMD), rat cerebral cortex; type: binding
[3] = test system: central muscarinic antagonist site; type: binding; settings: rat cerebral cortex, [3H]quinuclidinyl benzilate
[4] = aged humans and nonhuman primates with decreased cognition; cited from earlier work

| Compound | age-related cognitive deficits [1] | RCMD (% Inhibition at 0.1 μM) [2] | RQNB (% Inhibition at 1 μM) [3] | memory [4] |
| --- | --- | --- | --- | --- |
| Nc1ccncc1N [3,4-diaminopyridine] | ameliorate age-related cognitive deficits |  |  |  |
| c1nnnn1C1CN2CCC1CC2 (centres unmarked) [Example 1, 3-(1H-Tetrazol-1-yl)-1-azabicyclo[2.2.2]octane] |  | 0% | 7% |  |
| Cc1nnnn1C1CN2CCC1CC2 (centres unmarked) [Example 1a, 3-(5-Methyl-1H-tetrazol-1-yl)-1-azabicyclo[2.2.2]octane] |  | 8% | 19% |  |
| CCc1nnnn1C1CN2CCC1CC2 (centres unmarked) [Example 1b, 3-(5-Ethyl-1H-tetrazol-1-yl)-1-azabicyclo[2.2.2]-octane] |  | 15% | 11% |  |
| CNC(=O)Oc1ccc2c(c1)[C@]1(C)CCN(C)[C@@H]1N2C [physostigmine] |  |  |  | improved memory |
